Test results from patent US20040014814A1, “Compositions and methods for delaying preventing rejuvenating or reversing senescence in cells” (priority 2000, published 2004).

Tests used:
MRC-5 cells = assay: Lifespan (population doublings) of MRC-5 cells in culture; assay type: cell-based, human
Procedure: Cultures were split in a 1:4 ratio when flasks were approximately 70-80% confluent.
MRC -5 cells (fetal lung fibroblasts) were grown in Dulbecco's modification of Eagles' minimum essential medium (DMEM Gibco BRL Cat. No. 12800-017) containing 0.45% glucose, or MEM (Gibco BRL Cat. No. 612800-017) containing 0.1% glucose. Both media contained 10% fetal calf scrum (TRACE Biosciences Cat. No. 15-010-0500V) and Penicillin/Streptomycin 5000 IU, 5000 μg/ml (TRACE Biosciences Cat. No. 21-140-0100V). Cells were grown in […] flasks or in dishes (35 mm or 60 mm, Nunc) at 37° C. with 5% CO2. Cells were harvested with trypsin (TRACE Biosciences Cat. No. 21-163-0100V) and counted with a model ZF6 Coulter Counter. Cells were split in ratios of 1:2 or 1:4. Population doublings (PDs) were calculated from the ratio of the initial number of cells plated to the yield of cells after a period of time. This provides an accurate measure of cell growth, with the split ratios 1:2 and 1:4 corresponding to one and two passages respectively, which are broadly equivalent to population doublings. The media was changed every 5 days or when cells became confluent.
MRC-5 cells were used to observe the toxicity of a series of derivatives of carnosine on cell growth. Cell cultures were grown in DMEM media with 10% fetal calf serum and supplemented with the following carnosine analogues: carnosine ethyl ester, carnosine iso-propyl ester, carnosine n-butyl ester, carnosine n-hexyl ester, N-propyl carnosine, N-hexanoyl carnosine, N-trimethyl acetyl carnosine, N-acetyl carnosine methyl ester, N-acetyl carnosine ethyl ester and N-acetyl carnosine, at concentrations ranging between 1 mM to 20 mM. Cells were also grown in DMEM supplemented with carnosine at 20 mM. […] Even at lower concentrations cell morphology was that of cells that have reached senescence i.e. broad flat cells with long process reaching out to other cells. Cell numbers were less than in the control flasks. […] As shown in FIG. 1 Acetyl-carnosine achieved a lifespan 5 PDs greater than the control and 6.7 PDs greater than carnosine over a 43 day period. […] In the early phase of the experiment growth rates were markedly greater than with the other compounds (FIG. 1).
In fact all populations of MRC-5 cells grown in DMEM supplemented with acetyl-carnosine preserved a younger phenotype for much longer than cells grown in DMEM supplemented with carnosine or its analogues.
Under control conditions the range was 57.3-64.5 PDs (n=5). With the addition of carnosine (20mM) to the medium the range was 61.8-63.7 PDs (n=5) with an average increase of 1.4 PDs which represents a 3 fold increase in cell number. However, when acetyl-carnosine (5 mM) was added to the medium, the range was 62.3-70.3 PDs (n=5) with an average increase of 5 PDs compared with the controls. This represents a 32 fold increase in cell number.

non-enzymic glycation = system: non-enzymic glycation; parameters: key: 0 = zero effect; 10 = maximum effect; details: summary grade; footnote (2) literature; cited from earlier work
[1] = Fate of compound after cellular uptake; assay type: cell-based; details: compared with carnosine
Procedure: Experiments were conducted to determine the fate of acetyl-carnosine and carnosine after cellular uptake. […] A slower metabolism and incorporation into other proteins may be one reason for acetyl-carnosine having higher effective intracellular concentrations compared with carnosine despite its lower overall uptake.

p16^INK4/CDKN2 = assay: Immunohistochemical staining of p16 in MRC-5 cell nuclei; assay type: cell-based, human; details: senescent cells, old media replaced with supplemented media, after a few days
Procedure: Senescent cells treated with acetyl-carnosine acquire a younger phenotype and no longer express p16 (C). Cells were stained from passage 30 until senescence was reached (approximately passage 65) in order to determine the effectiveness of p16 as a reliable biomarker.
Tissue culture cells were fixed by slowly infusing 4% paraformaldehyde in 0.1M sodium phosphate buffer pH 7.4 into the culture medium. This solution was then replaced with fixative alone and stored at −20° C. for 30 minutes. Cultures were then defrosted for 5 minutes at 37° C. and then washed with 3 changes of the 0.1M sodium phosphate buffer. […]
Three primary antibodies were used in this study: (i) murine monoclonal antibodies against cyclin-dependent kinase inhibitor p27^kipl (clone SX53G8, IgG, Loto38, DAKO, diluted 1:200); (ii) murine monoclonal antibodies against cyclin-dependent kinase inhibitor p21^WAP/CIPI (clone SX118, IgG, Loto88, DAKO, diluted 1:200); and (iii) murine monoclonal antibodies against cyclin-dependent kinase inhibitor p16^INK4/CDKN2 (clone DCS-50, IgG, Lot 077H4821, Sigma, diluted 1:200). […] An estimate of positively stained cells to specific antigens was determined. […]

human blood peptidases = assay: Stability in human blood serum / attack by human blood peptidases; assay type: in vitro ADME
Anti-oxidant activity = assay type: biochemical; details: parent compound = carnosine

Residence time in the cell before degradation [1]: considerably longer residence time
Resistance to attack by human blood peptidases (human blood peptidases): almost completely resistant
Stability in human blood serum (human blood peptidases; human blood serum): quite stable
Structure (SMILES): CC(=O)NCCC(=O)N[C@@H](Cc1cnc[nH]1)C(=O)O [N-acetyl carnosine]
Range of lifespans of populations of MRC-5 cells (MRC-5 cells; 5 mM in medium, n=5): 62.3-70.3 PDs
Lifespan greater than carnosine (MRC-5 cells; 5 mM vs carnosine 20 mM, passage 55 cells, over a 43 day period): 6.7 PDs
Lifespan of MRC-5 cells in culture, Population Doublings (PD) (MRC-5 cells; 5 mM, commenced at passage 55): 15.2 PD
Average increase in lifespan compared with controls (MRC-5 cells; 5 mM, n=5): 5 PDs
Lifespan greater than the control (MRC-5 cells; 5 mM, passage 55 cells, over a 43 day period): 5 PDs
Increase in cell number (MRC-5 cells; 5 mM, worked out from the PD increase): 32 fold
Lifespan of MRC-5 cells compared with carnosine (FIG. 2) (MRC-5 cells; acetyl-carnosine 5 mM vs carnosine 20 mM, commenced at passage 32): markedly increased the lifespan
Increase in cell mass (MRC-5 cells; cells exposed to supplemented media): 32 fold
anti-glycation (2) (non-enzymic glycation): 0
Expression of p16 in the nucleus (p16^INK4/CDKN2): no expression of p16 in the nucleus
Antioxidant effectiveness relative to the parent compound (Anti-oxidant activity): 60%
